From paper PMC8546428, “Convergent olfactory trace amine-associated receptors detect biogenic polyamines with distinct motifs via a conserved binding site” (The Journal of Biological Chemistry, 2021)
Numbering of substitutions follows the chain as printed.

Tests used:
sTAAR365 Y7.43S = sTAAR365 Y7.43S (Petromyzon marinus, UniProt A0A678XMK4, Y299S); test: cell-based
mTAAR9 W7.40A = target: T1, mTAAR9 W7.40A (Mus musculus, UniProt Q5QD04, W298A); test: CRE-luciferase reporter assay, mTAAR9 mutant in Hana3A; format: cell-based; conditions: read-out: EC50 (mean ± S.D., n = 3)
T1 construct: expressed in transfected cells; host or cells: Hana3A (HEK293-derived)
T1 sequence (Q5QD04 1-348 W298A): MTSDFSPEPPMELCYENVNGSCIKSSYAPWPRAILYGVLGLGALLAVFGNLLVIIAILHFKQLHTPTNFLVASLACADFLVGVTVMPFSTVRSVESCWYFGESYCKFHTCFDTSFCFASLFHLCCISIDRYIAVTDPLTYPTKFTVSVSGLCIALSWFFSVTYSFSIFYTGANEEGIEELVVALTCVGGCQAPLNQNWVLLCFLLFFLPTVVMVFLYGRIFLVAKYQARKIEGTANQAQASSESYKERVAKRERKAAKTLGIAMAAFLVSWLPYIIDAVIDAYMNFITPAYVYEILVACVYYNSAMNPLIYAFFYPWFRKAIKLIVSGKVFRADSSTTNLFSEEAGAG

mTAAR9 Y6.51W = target: T2, mTAAR9 Y6.51W (Mus musculus, UniProt Q5QD04, Y274W); test: as above; format: cell-based; conditions: read-out: EC50 (mean ± S.D., n = 3)
T2 construct: expressed in transfected cells; host or cells: Hana3A (HEK293-derived)
T2 sequence (Q5QD04 1-348 Y274W): T1 sequence (Q5QD04 1-348 W298A) with Y274W, A298W

WT mTAAR9 = target: T3, WT mTAAR9 (Mus musculus, UniProt Q5QD04); test: CRE-luciferase reporter assay, wild-type mTAAR9 in Hana3A; format: cell-based; conditions: mouse TAAR9, ligand 1 mM, Fig. 1B
T3 construct: Rho-tag (first 20 amino acids of bovine rhodopsin) (N); expressed in transfected cells; host or cells: Hana3A (HEK293-derived)
T3 sequence (Q5QD04 1-348): T1 sequence (Q5QD04 1-348 W298A) with A298W
Description: Mammalian TAAR9 plasmids were transfected into Hana3A cells along with a cAMP-dependent luciferase reporter plasmid (CRE-Luc). Transfected cells were incubated with tested ligands, and luciferase activity was quantified with a […] substrate as a reporter for Golf-mediated TAAR activation. Luciferase activity was indicated by the luminescence value and normalized as a fold-increase over the response to the vehicle stimuli (mean ± S.D., n = 3). […] B, Hana3A cells expressing mouse, rat, human, cat, hamster, and rabbit TAAR9 were incubated with either vehicle or tested ligands (1 mM) and assayed for reporter activity. C, concentration-dependent luciferase activity in Hana3A cells expressing mouse, rat, and cat TAAR9 receptors stimulated with cadaverine, spermidine, and spermine.
The firefly luciferase and renilla luciferase activity was measured with a BioTek microplate reader following manufacturer’s instructions.

sTAAR365 Y7.43S, sequence (A0A678XMK4 whole entry Y299S): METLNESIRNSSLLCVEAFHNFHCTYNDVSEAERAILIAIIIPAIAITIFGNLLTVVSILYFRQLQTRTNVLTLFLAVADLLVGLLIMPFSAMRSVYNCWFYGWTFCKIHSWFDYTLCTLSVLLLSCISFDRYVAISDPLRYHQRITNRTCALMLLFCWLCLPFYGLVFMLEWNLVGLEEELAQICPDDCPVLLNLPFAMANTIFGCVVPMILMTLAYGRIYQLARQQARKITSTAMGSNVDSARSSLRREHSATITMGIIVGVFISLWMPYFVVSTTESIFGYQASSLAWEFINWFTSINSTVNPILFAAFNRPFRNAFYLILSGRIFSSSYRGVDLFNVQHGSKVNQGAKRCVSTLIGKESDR

SMILES | EC50 (sTAAR365 Y7.43S) [µM] | EC50 (mTAAR9 W7.40A) [µM] | EC50 (mTAAR9 Y6.51W) [µM] | reporter activity (activation of TAAR9) (WT mTAAR9)
NCCCCCN [cadaverine] | 124 ± 9 | > 1000 | > 1000 | –
NCCCCN [putrescine] | – | – | – | not activated
